This passage reports LC retention time results from the RepoRT retention time repository (doi:10.1016/j.chroma.2015.11.014).

A short description of this data set: RP, Agilent ZORBAX Eclipse Plus C18, 150 × 2.1 mm, 3.5 µm, 40 °C, 0.3 mL/min, estimated dead time 1.1 min; A: water + 0.1% formic acid; B: acetonitrile + 0.1% formic acid; gradient (min/%B) 0/2 1/2 2/20 16.5/98 22/98. The following applies: stereoisomer not certain.

Turning to `O=C1c2ccccc2C(=O)C1c1ccccc1`, the LC retention time was 14.2 min.
On to `O=c1[nH]c(=S)c2[nH]cnc2[nH]1`, for which the LC retention time is 4.02 min.
With `CC(C)(C(=O)O)c1ccc(C(=O)CCCN2CCC(OC(c3ccccc3)c3ccccc3)CC2)cc1`, the LC retention time was 10 min.
Take `CC(C)NCC(O)COc1ccc(CCOCC2CC2)cc1` (stereo not given): the LC retention time was 7.06 min.
On to `CCN(CC)C(=O)C(C#N)=Cc1cc(O)c(O)c([N+](=O)[O-])c1`, for which the LC retention time was 9.38 min.
Consider `CCCCCCCCc1ccc(CCC(N)(CO)CO)cc1`, for which the LC retention time is 10.2 min.
Take `CNC(=O)Oc1cccc2ccccc12`: the LC retention time is 10.1 min.
Regarding `O=C(C1CCCCC1)N1CC(=O)N2CCc3ccccc3C2C1` (stereo not given), the LC retention time is 10.8 min.
On to `CC1(C)CC(N(C=O)CCCCCCN(C=O)C2CC(C)(C)NC(C)(C)C2)CC(C)(C)N1`, for which the LC retention time is 4.67 min.
For `O=C(O)CCCCC(=O)O`, the LC retention time was 5.22 min.
Consider `CC12C=CC(=O)C=C1CCC1C2C(=O)CC2(C)C1CCC2(O)C(=O)CO` (stereo not given), for which the LC retention time was 8.47 min.
Consider `Nc1ccccc1C[P+](c1ccccc1)(c1ccccc1)c1ccccc1`, for which the LC retention time is 8.43 min.
`O=P(Cc1ccccc1)(Cc1ccccc1)Cc1ccccc1`: the LC retention time is 11.6 min.
`NC(=O)N1c2ccccc2C=Cc2cc(O)ccc21`: the LC retention time was 7.48 min.
Regarding `CCCCCCCCCCCCCC[P+](CCCCCC)(CCCCCC)CCCCCC`, the LC retention time is 17.1 min.
Regarding `CCCCCCCCCCC(C(=O)OCCCCCC)[N+](C)(C)Cc1ccccc1` (stereo not given), the LC retention time was 13.6 min.
Turning to `[O-]N(O)c1ccc(C[P+](c2ccccc2)(c2ccccc2)c2ccccc2)cc1`, the LC retention time is 8.52 min.
As to `CCNC(=O)C1CC(C)CCC1C(C)C` (stereo not given), the LC retention time is 11.8 min.
As to `CC(C)c1ccccc1OP(=O)(Oc1ccccc1)Oc1ccccc1`, the LC retention time is 15.8 min.
Take `CCOP(=S)(OCC)Oc1cc(C)nc(C(C)C)n1`: the LC retention time is 14.5 min.
The result for `CCOCCOC(=O)Nc1ccc(C)cc1` reads 10.8 min; that for `CN1C(C(=O)Nc2ccccn2)=C(O)c2sccc2S1(=O)=O`, 7.36 min; that for `O=C(NC1CCCCC1)N(Cc1ccccc1)Cc1ccccc1`, 14.1 min.
The result for `CCNC(=O)c1cccc(C)c1` reads 8.34 min.
On to `Cc1cc(OCCOCC[N+](C)(C)Cc2ccccc2)ccc1C(C)(C)CC(C)(C)C`, for which the LC retention time is 12.3 min.
For `CCCCN1C=CC=CC1`, the LC retention time is 4.24 min.
`CCC(CC)Nc1c([N+](=O)[O-])cc(C)c(C)c1[N+](=O)[O-]`: the LC retention time is 16.2 min.
On to `CC12CCC3c4ccc(OS(=O)(=O)O)cc4CCC3C1CCC2=O` (stereo not given), for which the LC retention time is 11.1 min.
`CCCCCCCCCC[N+](C)(C)CCCCCCCCCC`: the LC retention time is 13.4 min.
With `Cc1cccc(Nc2ccncc2S(=O)(=O)NC(=O)NC(C)C)c1`, the LC retention time is 7.63 min.
The result for `CCCCCCCCN1CCCC1=O` reads 12.6 min; that for `CCCCCCCCCC[N+](C)(C)Cc1ccccc1`, 10.4 min.
For `CC1(C)OCC2OC3(C(=O)O)OC(C)(C)OC3C2O1` (stereo not given), the LC retention time was 7.35 min.
Next, `O=C(c1ccccc1)c1ccccc1O`: 13 min; `CC(C)(c1ccc(OCC(O)CO)cc1)c1ccc(OCC(O)CO)cc1` (stereo not given): 8.23 min.
As to `Cc1ccc(C(=O)c2cc(O)c(O)c([N+](=O)[O-])c2)cc1`, the LC retention time is 11.1 min.
Turning to `COc1ccc2nc(S(=O)Cc3ncc(C)c(OC)c3C)[nH]c2c1` (stereo not given), the LC retention time was 6.46 min.
As for `Nc1ccc(C(=O)O)c(O)c1`, the LC retention time is 5.48 min.
Regarding `Cc1ccc(S(=O)(=O)O)cc1`, the LC retention time was 5.4 min.
In the case of `CC(=O)Nc1cccc(O)c1`, the LC retention time was 5.68 min.
On to `COC1C=COC2(C)Oc3c(C)c(O)c4c(O)c(c5c(nc6cc(C)ccn65)c4c3C2=O)NC(=O)C(C)=CC=CC(C)C(O)C(C)C(O)C(C)C(OC(C)=O)C1C` (stereo not given), for which the LC retention time was 11.8 min.
Regarding `Cc1cc(NS(=O)(=O)c2ccc(NO)cc2)no1`, the LC retention time was 6.77 min.
On to `CC12CCC(=O)C=C1CCC1C2C(=O)CC2(C)C1CCC2(O)C(=O)CO` (stereo not given), for which the LC retention time was 8.4 min.
As to `C=C(C)C([O-])=NCCC[N+](C)(C)C`, the LC retention time was 4.7 min.
For `CCCCCCCCCCCCN`, the LC retention time is 9.47 min.
Next, `Nc1nc2c(ncn2C2CC(O)C(CO)O2)c(=O)[nH]1` (stereo not given): 4.09 min.
Next, `CCC(C)(C)C(=O)OC1CC(C)C=C2C=CC(C)C(CCC3CC(O)CC(=O)O3)C21` (stereo not given): 15.4 min.
Turning to `COc1cc(Cc2cnc(N)nc2N)cc(OC)c1O`, the LC retention time is 4.78 min.
As to `COc1cc(NS(=O)(=O)c2ccc(N)cc2)nc(OC)n1`, the LC retention time is 8.09 min.
For `COC(=O)Nc1nc2ccc(S(=O)c3ccccc3)cc2[nH]1` (stereo not given), the LC retention time is 6.58 min.
`Cc1noc(NS(=O)(=O)c2ccc(N)cc2)c1C`: the LC retention time was 7.56 min.
With `CC[N+](CC)(CC)CC`, the LC retention time is 2.28 min.
With `CCCCCCCCCCCC[N+](C)(C)CCOc1ccccc1`, the LC retention time was 12 min.
Turning to `c1ccc([P+](Cc2ccccn2)(c2ccccc2)c2ccccc2)cc1`, the LC retention time was 8.34 min.
In the case of `CCOP(=O)(OCC)OCC`, the LC retention time was 7.41 min.
For the compound `CC(C)(C)P(=O)(O)O`, the LC retention time is 4.63 min.
Take `CC1(C)CC(O)CC(C)(C)N1CCO`: the LC retention time was 2.16 min.
`CC1CC2C(C(O)CC3(C)C2CCC3(O)C(=O)CO)C2(C)C=CC(=O)C=C12` (stereo not given): the LC retention time was 9.02 min.
Next, `CN(C)c1ccc(-c2nc3ccccc3[nH]2)cc1`: 6.52 min; `O=C(O)C(c1ccccc1)C1CCCCN1` (stereo not given): 4.91 min.
Take `CCOC(=O)Nc1ccc(N)cc1`: the LC retention time is 4.86 min.
As for `CCC(CC)OC1C=C(C(=O)O)CC(N)C1NC(C)=O` (stereo not given), the LC retention time was 5.65 min.
Consider `CCC1(c2cccc(O)c2)CCCCN(C)C1` (stereo not given), for which the LC retention time was 5.64 min.
Take `CC(C)C(NC(=O)OC(C)(C)C)C(=O)O` (stereo not given): the LC retention time is 9 min.
The result for `CC12C=CC(=O)C=C1CCC1C2C(O)CC2(C)C1CCC2(O)C(=O)CO` (stereo not given) reads 8.43 min.
